Earlier results as cited in patent publication US6995188B2 (priority 2002, dated 2006).
Where two headings read alike, the source gives them in different places.

How the values were obtained:
[1] = tested on: P388 lymphocytic leukemia cells; settings: mouse, in vivo, ip, cited from earlier work
[2] = tested on: APL and non-APL cell lines; settings: compared with arsenic trioxide; cited from earlier work
[3] = tested on: patients with advanced leukemia; settings: 8 patients, 3 days per week for 3 consecutive weeks; cited from earlier work

CC[As](CC)S[C@@H]1O[C@H](COC(C)=O)[C@@H](OC(C)=O)[C@H](OC(C)=O)[C@H]1OC(C)=O [Compound 3, 2,3,4,6-tetra-O-acetyl-1-S-diethylarsino-1-thio-β-D-glucopyranose]
% T/C ([1]; 100 mg/kg): 180%

CCCCCCCCCCCCCCCC[As](CCCCCCCCCCCCCCCC)S[C@@H]1O[C@H](COC(C)=O)[C@@H](OC(C)=O)[C@H](OC(C)=O)[C@H]1OC(C)=O [Compound 5, 2,3,4,6-tetra-O-acetyl-1-S-dihexadecylarsino-1-thio-β-D-glucopyranose]
% T/C ([1]; 50 mg/kg): 125%

CCCC[As](CCCC)S[C@@H]1O[C@H](COC(C)=O)[C@@H](OC(C)=O)[C@H](OC(C)=O)[C@H]1OC(C)=O [Compound 1, 2,3,4,6-tetra-O-acetyl-1-S-dibutylarsino-1-thio-β-D-glucopyranose]
% T/C ([1]; 100 mg/kg): 117%

CC(=O)N[C@H]1[C@@H](OC(C)=O)O[C@H](CS[As](C)C)[C@@H](OC(C)=O)[C@@H]1OC(C)=O [Compound 20, 2-acetamido-1,3,4-tri-O-acetyl-2-deoxy-6-S-dimethylarsino-6-thio-α-D-glucopyranose]
% T/C ([1]; 100 mg/kg): 136%

C[As](C)SCC(N)C(=O)O (racemic) [Compound 10, S-dimethylarsino-DL-cysteine]
% T/C ([1]; 50 mg/kg): 110%

CC(=O)N[C@@H]1[C@@H](OC(C)=O)[C@H](OC(C)=O)[C@@H](COC(C)=O)O[C@H]1S[As](C)C [Compound 18, 2-acetamido-3,4,6-tri-O-acetyl-2-deoxy-1-S-dimethylarsino-1-thio-β-D-glucopyranose]
% T/C ([1]; 50 mg/kg): 136%

2,3,4,6-tetra-O-acetyl-1-S-hydroxyethylmethyl-1-thio-β-D-glucopyranose [Compound 4]
% T/C ([1]; 100 mg/kg): 116%

Nc1nc(N)nc(Nc2ccc([As]3SCC(CO)S3)cc2)n1 (centres unmarked) [melarsoprol]
activity against APL and non-APL cell lines [2]: activity at least equivalent to that of arsenic trioxide | antitumor effects [3]: Only one patient (with chronic lymphocytic leukemia) displayed antitumor effects | side effects [3]: most experienced neurological side effects

CCC[As](CCC)S[C@@H]1O[C@H](COC(C)=O)[C@@H](OC(C)=O)[C@H](OC(C)=O)[C@H]1OC(C)=O [Compound 2, 2,3,4,6-tetra-O-acetyl-1-S-dipropylarsino-1-thio-β-D-glucopyranose]
% T/C ([1]; 200 mg/kg): 124%

CC(C)CCC[C@@H](C)[C@H]1CC[C@H]2[C@@H]3CC=C4C[C@@H]([Se][As](C)C)CC[C@]4(C)[C@H]3CC[C@]12C [Compound 15, Se-dimethylarsino-selenocholesterol]
% T/C ([1]; 200 mg/kg): 129%

CC(=O)OC[C@H]1O[C@@H](S[As](C)C)[C@H](OC(C)=O)[C@@H](OC(C)=O)[C@H]1OC(C)=O [Compound 16, 2,3,4,6-tetra-O-acetyl-1-S-dimethylarsino-1-thio-β-D-galactopyranose]
% T/C ([1]; 100 mg/kg): 129%

CC(=O)OC[C@H]1O[C@@H](S[As](C2CCCCC2)C2CCCCC2)[C@H](OC(C)=O)[C@@H](OC(C)=O)[C@@H]1OC(C)=O [Compound 6, 2,3,4,6-tetra-O-acetyl-1-S-dicyclohexylarsino-1-thio-β-D-glucopyranose]
% T/C ([1]; 400 mg/kg): Toxic
